According to patent US10548317B2, “Pesticidally active pyrazole derivatives” (SYNGENTA PARTICIPATIONS AG, priority 2015, dated 2020):

Legend:
Tetranychus urticae = Tetranychus urticae (two-spotted spider mite) bean leaf disc test; type: in vivo; conditions: foliar, 192 h, application rate of 200 ppm, bean leaf discs, mixed population (mobile stages), 8 days after infestation
Description: Tetranychus urticae (Two-Spotted Spider Mite):
Bean leaf discs on agar in 24-well microtiter plates were sprayed with aqueous test solutions prepared from 10'000 ppm DMSO stock solutions. After drying the leaf discs were infested with a mite population of mixed ages. The samples were assessed for mortality on mixed population (mobile stages) 8 days after infestation.

Diabrotica balteata = Diabrotica balteata (corn root worm) maize sprout test; type: in vivo; conditions: 96 h, application rate of 200 ppm, maize sprouts, L2 larvae, 4 days after infestation, read-out: effect in at least one of the two categories (mortality or growth inhibition)
Description: Diabrotica balteata, (Corn Root Worm)
Maize sprouts, placed on an agar layer in 24-well microtiter plates were treated with aqueous test solutions prepared from 10'000 ppm DMSO stock solutions by spraying. After drying, the plates were infested with L2 larvae (6 to 10 per well). The samples were assessed for mortality and growth inhibition in comparison to untreated samples 4 days after infestation. The following compounds gave an effect of at least 80% in at least one of the two categories (mortality or growth inhibition) at an application rate of 200 ppm: 1, 3, 4, 5, 6, 7, 8, 9, 10, 11, 12, 14, 15, 16, 17, 18, 19, 20, 21, 22, 23, 24, 25, 26, 27, 28, 29, 30, 31, 32, 33, 35, 36, 37, 38, 39, 40, 41, 42, 43, 44, 45, 48, 50, 51, 52, 53, 54 and 55.

Spodoptera littoralis = Spodoptera littoralis (Egyptian cotton leaf worm) leaf disc spray test; type: in vivo; conditions: foliar, 72 h, application rate of 200 ppm, cotton leaf discs, L1 larvae, 3 days after infestation, read-out: control (at least one of mortality, anti-feedant effect, growth inhibition)
Description: Spodoptera littoralis (Egyptian Cotton Leaf Worm)
Cotton leaf discs were placed on agar in 24-well microtiter plates and sprayed with aqueous test solutions prepared from 10'000 ppm DMSO stock solutions. After drying the leaf discs were infested with five L1 larvae. The samples were assessed for mortality, anti-feedant effect, and growth inhibition in comparison to untreated samples 3 days after infestation. Control of Spodoptera littoralis by a test sample is when at least one of mortality, anti-feedant effect, and growth inhibition is higher than the untreated sample.

Euschistus heros = Euschistus heros (neotropical brown stink bug) soybean leaf test; type: in vivo; conditions: 120 h, application rate of 200 ppm, soybean leaves, N2 nymphs, 5 days after infestation, read-out: effect in at least one of the two categories (mortality or growth inhibition)
Description: Euschistus heros (Neotropical Brown Stink Bug)
Soybean leaves on agar in 24-well microtiter plates were sprayed with aqueous test solutions prepared from 10'000 ppm DMSO stock solutions. After drying the leaves were infested with N2 nymphs. The samples were assessed for mortality and growth inhibition in comparison to untreated samples 5 days after infestation. The following compounds gave an effect of at least 80% in at least one of the two categories (mortality or growth inhibition) at an application rate of 200 ppm: 3, 4, 5, 6, 9, 10, 12, 14, 15, 16, 17, 18, 20, 24, 27, 28, 29, 31, 32, 33, 36, 37, 38, 42, 43, 45, 50, 52, 53, 54 and 55.

Plutella xylostella = Plutella xylostella (diamond back moth) artificial diet test; type: in vivo; conditions: 120 h, application rate of 200 ppm, L2 larvae, 5 days after infestation, read-out: effect in at least one of the two categories (mortality or growth inhibition)
Description: Plutella xylostella (Diamond Back Moth):
24-well microtiter plates with artificial diet were treated with aqueous test solutions prepared from 10'000 ppm DMSO stock solutions by pipetting. After drying, the plates were infested with L2 larvae (10 to 15 per well). The samples were assessed for mortality and growth inhibition in comparison to untreated samples 5 days after infestation. The following compounds gave an effect of at least 80% in at least one of the two categories (mortality or growth inhibition) at an application rate of 200 ppm: 1, 2, 3, 4, 5, 6, 7, 8, 9, 10, 11, 12, 13, 14, 15, 16, 17, 18, 19, 20, 21, 22, 23, 24, 25, 26, 27, 28, 29, 30, 31, 32, 33, 35, 36, 37, 38, 39, 40, 41, 42, 43, 44, 45, 46, 47, 48, 50, 51, 52, 53, 54 and 55.

Thrips tabaci = Thrips tabaci (onion thrips) sunflower leaf disc test; type: in vivo; conditions: foliar, 144 h, application rate of 200 ppm, sunflower leaf discs, mixed ages, 6 days after infestation
Description: Thrips tabaci (Onion thrips):
Sunflower leaf discs were placed on agar in 24-well microtiter plates and sprayed with aqueous test solutions prepared from 10'000 ppm DMSO stock solutions. After drying the leaf discs were infested with a thrips population of mixed ages. The samples were assessed for mortality 6 days after infestation.

Row | SMILES | melting point [°C] | mortality at 200 ppm (Tetranychus urticae) [%] | percent effect (mortality or growth inhibition) at 200 ppm (Diabrotica balteata) [%] | control (mortality, anti-feedant effect or growth inhibition) at 200 ppm (Spodoptera littoralis) [%] | percent effect (mortality or growth inhibition) at 200 ppm (Euschistus heros) [%] | percent effect (mortality or growth inhibition) at 200 ppm (Plutella xylostella) [%] | mortality at 200 ppm (Thrips tabaci) [%]
1 | C=C(Cl)CNC(=O)c1cc(-c2cnn(-c3c(C(F)(F)F)c(C(F)(F)C(F)(F)F)nn3C)c2)sc1Cl [Compound 31] |  | ≥ 80 | ≥ 80 | ≥ 80 | ≥ 80 | ≥ 80 | ≥ 80
2 | Cc1sc(-c2cnn(-c3c(C(F)(F)F)c(C(F)(F)C(F)(F)F)nn3C)c2)cc1C(=O)NC1(C#N)CC1 [Compound 42] |  | ≥ 80 | ≥ 80 | ≥ 80 | ≥ 80 | ≥ 80 | ≥ 80
3 | Cn1nc(C(F)(F)C(F)(F)F)c(OC(F)F)c1-n1cc(-c2cc(C(=O)NC3(C#N)CC3)c(Cl)s2)cn1 [Compound 38] |  | ≥ 80 | ≥ 80 | ≥ 80 | ≥ 80 | ≥ 80 | ≥ 80
4 | C=CCNC(=O)c1cc(-c2cnn(-c3c(C(F)(F)F)c(C(F)(F)C(F)(F)F)nn3C)c2)sc1Cl [Compound 29] |  | ≥ 80 | ≥ 80 | ≥ 80 | ≥ 80 | ≥ 80 | ≥ 80
5 | CCNC(=O)c1cc(-c2cnn(-c3c(C(F)(F)F)c(C(F)(F)C(F)(F)F)nn3C)c2)sc1Cl [Compound 20] |  | ≥ 80 | ≥ 80 | ≥ 80 | ≥ 80 | ≥ 80 | ≥ 80
6 | Cc1sc(-c2cnn(-c3c(C(F)(F)F)c(C(F)(F)C(F)(F)F)nn3C)c2)cc1C(=O)NC1CC1 [Compound 43] |  | ≥ 80 | ≥ 80 | ≥ 80 | ≥ 80 | ≥ 80 | ≥ 80
7 | Cn1nc(C(F)(F)C(F)(F)F)c(C(F)(F)F)c1-n1cc(-c2cc(C(=O)NC3(C#N)CC3)c(Cl)s2)cn1 [Compound 4, 2-chloro-N-(1-cyanocyclopropyl)-5-[1-[2-methyl-5-(1,1,2,2,2-pentafluoroethyl)-4-(trifluoromethyl)pyrazol-3-yl]pyrazol-4-yl]thiophene-3-carboxamide] |  | ≥ 80 | ≥ 80 | ≥ 80 | ≥ 80 | ≥ 80 | ≥ 80
8 | Cn1nc(C(F)(F)C(F)(F)F)c(C(F)(F)F)c1-n1cc(-c2cc(C(=O)N[C@H]3C[C@@H]3C(F)(F)F)c(Cl)s2)cn1 [Compound 33] |  | ≥ 80 | ≥ 80 | ≥ 80 | ≥ 80 | ≥ 80 | ≥ 80
9 | Cn1nc(C(F)(F)C(F)(F)F)c(C(F)(F)F)c1-n1cc(-c2cc(C(=O)NCC3CC3)c(Cl)s2)cn1 [Compound 27] |  | ≥ 80 | ≥ 80 | ≥ 80 | ≥ 80 | ≥ 80 | ≥ 80
10 | Cn1nc(C(F)(F)C(F)(F)F)c(C(F)(F)F)c1-n1cc(-n2cc(C(=O)NC3CC3)c(C(F)(F)F)n2)cn1 [Compound 12] |  | ≥ 80 | ≥ 80 | ≥ 80 | ≥ 80 | ≥ 80 | ≥ 80
11 | CC(C)NC(=O)c1cc(-c2cnn(-c3c(C(F)(F)F)c(C(F)(F)C(F)(F)F)nn3C)c2)sc1Cl [Compound 17] |  | ≥ 80 | ≥ 80 | ≥ 80 | ≥ 80 | ≥ 80 | ≥ 80

Now from value to compound, other results behind:

Row | melting point [°C] | SMILES | mortality at 200 ppm (Tetranychus urticae) [%] | percent effect (mortality or growth inhibition) at 200 ppm (Diabrotica balteata) [%] | control (mortality, anti-feedant effect or growth inhibition) at 200 ppm (Spodoptera littoralis) [%] | percent effect (mortality or growth inhibition) at 200 ppm (Euschistus heros) [%] | percent effect (mortality or growth inhibition) at 200 ppm (Plutella xylostella) [%] | mortality at 200 ppm (Thrips tabaci) [%]
12 | 146 to 148 | Cn1nc(C(F)(F)C(F)(F)F)c(C(F)(F)F)c1-n1cc(-c2cc(C(=O)NC3CC3)sn2)cn1 [Compound 63] |  |  |  |  |  | 
13 | 152 to 153 | COc1sc(-c2cnn(-c3c(C(F)(F)F)c(C(F)(F)C(F)(F)F)nn3C)c2)cc1C(=O)NC1CC1 [Compound 56] |  |  |  |  |  | 
14 | 192 to 193 | Cn1nc(C(F)(F)C(F)(F)F)c(C(F)(F)F)c1-n1cc(-c2cc(C(=O)NC3CC3)c(Br)s2)cn1 [Compound 57] |  |  |  |  |  | 
15 | 184 to 185 | Cn1nc(C(F)(F)C(F)(F)F)c(C(F)(F)F)c1-n1cc(-c2cc(C(=O)NC3(C#N)CC3)c(Br)s2)cn1 [Compound 61] |  |  |  |  |  | 
16 | 132 to 133 | Cn1nc(C(F)(F)C(F)(F)F)c(C(F)(F)F)c1-n1cc(-c2cnc(C(=O)NC3CC3)s2)cn1 [Compound 65] |  |  |  |  |  | 
17 | > 250 | Cn1nc(C(F)(F)C(F)(F)F)c(C(F)(F)F)c1-n1cc(-n2cc(C(=O)NC3(C#N)CC3)nn2)cn1 [Compound 67] |  |  |  |  |  | 
18 | 171 to 172 | Cn1nc(C(F)(F)C(F)(F)F)c(C(F)(F)F)c1-n1cc(-c2cc(C(=O)NC3CC3)c(C#N)s2)cn1 [Compound 59] |  |  |  |  |  | 
19 | 190 to 191 | Cn1nc(C(F)(F)C(F)(F)F)c(C(F)(F)F)c1-n1cc(-n2cnc(C(=O)NC3CC3)c2)cn1 [Compound 49] |  |  |  |  |  | 
20 | 242 to 244 | Cn1nc(C(F)(F)C(F)(F)F)c(C(F)(F)F)c1-n1cc(-n2cc(C(=O)NC3CC3)nn2)cn1 [Compound 68] |  |  |  |  |  | 
21 | 158 to 159 | Cn1nc(C(F)(F)C(F)(F)F)c(C(F)(F)F)c1-n1cc(-c2cnc(C(=O)NC3(C#N)CC3)s2)cn1 [Compound 64] |  |  |  |  |  | 
22 | 181 to 183 | Cn1nc(C(F)(F)C(F)(F)F)c(C(F)(F)F)c1-n1cc(-c2cc(C(=O)NC3CC3)no2)cn1 [Compound 66] |  |  |  |  |  | 
23 | 195 to 197 | Cn1nc(C(F)(F)C(F)(F)F)c(C(F)(F)F)c1-n1cc(-n2cnc(C(=O)NC3(C#N)CC3)c2)cn1 [Compound 62] |  |  |  |  |  | 
